Source: the supplement of paper PMC10307832

Experiments:
Experiment in all cases: relative viability (nuclei count vs DMSO), 5 days (fraction); higher = more cells survive
Palbociclib + Pictilisib = compound: CC(=O)c1c(C)c2cnc(Nc3ccc(N4CCNCC4)cn3)nc2n(C2CCCC2)c1=O [Palbociclib] + CS(=O)(=O)N1CCN(Cc2cc3nc(-c4cccc5[nH]ncc45)nc(N4CCOCC4)c3s2)CC1 [Pictilisib] (partner 1 µM)
Summary of the method: (§1)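 Lung cancer cell lines, seeded in 1536-well plates, were treated the following day by pin tool with a single drug or with five library-drug doses (not always all listed) in √10 steps on top of a fixed anchor-drug dose. Cells were fixed and nuclei stained in one step after 5 days, and nuclei were counted. Relative viability is the nuclei count for treated wells divided by that for vehicle wells, reported as medians of duplicate plates.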

Palbociclib + Lapatinib = compound: CC(=O)c1c(C)c2cnc(Nc3ccc(N4CCNCC4)cn3)nc2n(C2CCCC2)c1=O [Palbociclib] + CS(=O)(=O)CCNCc1ccc(-c2ccc3ncnc(Nc4ccc(OCc5cccc(F)c5)c(Cl)c4)c3c2)o1 [Lapatinib] (partner 2 µM)
Summary of the method: as §1

Palbociclib + Vorinostat = compound: CC(=O)c1c(C)c2cnc(Nc3ccc(N4CCNCC4)cn3)nc2n(C2CCCC2)c1=O [Palbociclib] + O=C(CCCCCCC(=O)Nc1ccccc1)NO [Vorinostat] (partner 1 µM)
Summary of the method: as §1

Palbociclib + Decitabine = compound: CC(=O)c1c(C)c2cnc(Nc3ccc(N4CCNCC4)cn3)nc2n(C2CCCC2)c1=O [Palbociclib] + Nc1ncn([C@H]2C[C@H](O)[C@@H](CO)O2)c(=O)n1 [Decitabine] (partner 2 µM)
Summary of the method: as §1

Cell Line	relative viability (Palbociclib + Pictilisib; first compound 0.01 µM)	relative viability (Palbociclib + Pictilisib; first compound 0.03162 µM)	relative viability (Palbociclib + Pictilisib; first compound 0.1 µM)	relative viability (Palbociclib + Pictilisib; first compound 0.3162 µM)	relative viability (Palbociclib + Pictilisib; first compound 1 µM)	relative viability (Palbociclib + Lapatinib; first compound 0.01 µM)	relative viability (Palbociclib + Lapatinib; first compound 0.03162 µM)	relative viability (Palbociclib + Lapatinib; first compound 0.1 µM)	relative viability (Palbociclib + Lapatinib; first compound 0.3162 µM)	relative viability (Palbociclib + Lapatinib; first compound 1 µM)	relative viability (Palbociclib + Vorinostat; first compound 0.01 µM)	relative viability (Palbociclib + Vorinostat; first compound 0.03162 µM)	relative viability (Palbociclib + Vorinostat; first compound 0.1 µM)	relative viability (Palbociclib + Vorinostat; first compound 0.3162 µM)	relative viability (Palbociclib + Vorinostat; first compound 1 µM)	relative viability (Palbociclib + Decitabine; first compound 0.01 µM)	relative viability (Palbociclib + Decitabine; first compound 0.03162 µM)	relative viability (Palbociclib + Decitabine; first compound 0.1 µM)	relative viability (Palbociclib + Decitabine; first compound 0.3162 µM)	relative viability (Palbociclib + Decitabine; first compound 1 µM)
NCI-H358	0.277	0.189	0.185	0.213	0.155	0.341	0.337	0.214	0.244	0.217	0.73	0.475	0.413	0.449	0.199	0.209	0.203	0.206	0.186	0.143
NCI-H460	0.465	0.302	0.268	0.318	0.182	0.92	0.813	0.71	0.516	0.207	0.669	0.604	0.454	0.369	0.115	0.432	0.415	0.503	0.46	0.264
NCI-H520	0.283	0.201	0.229	0.213	0.229	0.92	0.556	0.695	0.572	0.243	0.728	0.57	0.565	0.47	0.372	0.491	0.417	0.423	0.395	0.29
NCI-H596	0.379	0.422	0.385	0.397	0.387	1.28	1.07	0.974	1.2	1.14	0.656	0.655	0.589	0.768	0.57	1.15	0.973	1.05	0.945	1.22
NCI-H647	0.423	–	0.275	0.307	0.278	1.26	0.956	0.778	0.923	0.525	0.576	0.313	0.616	0.409	0.458	0.408	0.315	0.356	0.392	0.337
NCI-H650	1.02	–	0.364	0.659	0.489	1.3	–	0.657	0.818	0.434	0.537	–	0.366	0.359	0.314	0.305	–	0.31	0.306	0.354
NCI-H661	0.407	0.409	0.379	0.3	0.251	0.491	0.437	0.477	0.345	0.333	0.748	0.598	0.561	0.433	0.425	0.547	0.484	0.476	0.461	0.39
NCI-H727	0.401	0.287	0.258	0.318	0.239	0.777	0.555	0.417	0.386	0.436	1.25	1.03	1.01	1.01	0.909	0.866	0.964	0.895	0.829	0.669
NCI-H838	0.393	0.329	0.307	0.348	0.197	0.919	0.927	0.767	0.776	0.276	0.71	0.623	0.543	0.478	0.314	0.455	0.461	0.48	0.434	0.353
NCI-H1355	0.449	–	0.23	0.273	0.241	0.949	–	0.901	0.793	0.523	0.619	0.578	0.548	0.629	0.465	0.348	0.379	0.352	0.351	0.342
NCI-H1395	0.616	0.542	0.507	0.494	0.425	0.867	0.987	0.943	0.928	0.688	0.844	0.705	0.602	0.724	0.496	0.741	0.704	0.656	0.702	0.641
NCI-H1437	0.424	0.38	0.366	0.317	0.162	0.819	0.755	0.693	0.67	0.36	0.873	0.74	0.651	0.493	0.35	0.582	0.551	0.569	0.494	0.408
NCI-H1650	0.548	0.223	0.383	0.414	0.312	0.774	0.258	0.263	0.578	0.351	0.607	0.558	0.523	0.39	0.31	0.414	0.427	0.474	0.421	0.349
NCI-H1651	0.573	0.524	0.499	0.529	0.355	0.613	0.739	0.735	0.699	0.468	0.572	0.523	0.591	0.529	0.485	0.636	0.535	0.636	0.555	0.451
NCI-H1666	0.477	0.386	0.345	0.297	0.277	0.644	0.559	0.419	0.474	0.384	1.05	0.947	0.836	0.835	0.788	0.725	0.67	0.721	0.682	0.565
NCI-H1734	0.39	0.387	0.331	0.344	0.235	1.01	0.575	0.867	0.789	0.531	0.731	0.459	0.619	0.649	0.48	0.46	0.524	0.539	0.461	0.43
NCI-H1755	0.437	0.297	0.337	0.29	0.263	1.07	0.604	0.929	0.878	0.617	0.721	0.62	0.489	0.606	0.491	0.742	0.744	0.614	0.7	0.635

Cell Line	relative viability (Palbociclib + Pictilisib; first compound 0.01 µM)	relative viability (Palbociclib + Pictilisib; first compound 0.03162 µM)	relative viability (Palbociclib + Pictilisib; first compound 0.1 µM)	relative viability (Palbociclib + Pictilisib; first compound 0.3162 µM)	relative viability (Palbociclib + Pictilisib; first compound 1 µM)	relative viability (Palbociclib + Lapatinib; first compound 0.01 µM)	relative viability (Palbociclib + Lapatinib; first compound 0.03162 µM)	relative viability (Palbociclib + Lapatinib; first compound 0.1 µM)	relative viability (Palbociclib + Lapatinib; first compound 0.3162 µM)	relative viability (Palbociclib + Lapatinib; first compound 1 µM)	relative viability (Palbociclib + Vorinostat; first compound 0.01 µM)	relative viability (Palbociclib + Vorinostat; first compound 0.03162 µM)	relative viability (Palbociclib + Vorinostat; first compound 0.1 µM)	relative viability (Palbociclib + Vorinostat; first compound 0.3162 µM)	relative viability (Palbociclib + Vorinostat; first compound 1 µM)	relative viability (Palbociclib + Decitabine; first compound 0.01 µM)	relative viability (Palbociclib + Decitabine; first compound 0.03162 µM)	relative viability (Palbociclib + Decitabine; first compound 0.1 µM)	relative viability (Palbociclib + Decitabine; first compound 0.3162 µM)	relative viability (Palbociclib + Decitabine; first compound 1 µM)
NCI-H1793	0.241	0.351	0.285	0.224	0.219	0.68	0.619	0.462	0.602	0.355	0.824	0.564	0.531	0.664	0.287	0.559	0.613	0.611	0.46	0.342
NCI-H1915	0.875	0.504	0.846	0.808	0.621	0.972	0.379	1.04	0.942	0.808	0.487	–	0.438	0.525	0.378	0.277	–	0.254	0.254	0.26
NCI-H1944	0.317	0.332	0.334	0.265	0.228	0.798	0.487	0.772	0.758	0.402	0.579	0.456	0.399	0.475	0.343	0.45	0.426	0.447	0.438	0.431
NCI-H1975	0.286	0.271	0.199	0.25	0.186	0.959	0.831	0.833	0.922	0.711	0.712	0.649	0.597	0.579	0.469	0.413	0.429	0.412	0.399	0.365
NCI-H1993	0.858	0.628	0.829	0.812	0.632	0.841	0.715	0.661	0.624	0.658	0.8	0.539	0.625	0.644	0.65	0.61	0.588	0.606	0.507	0.555
NCI-H2009	0.758	0.453	0.462	0.411	0.182	0.859	0.391	0.697	0.63	0.369	0.716	0.677	0.69	0.53	0.295	0.375	0.347	0.358	0.365	0.274
NCI-H2023	0.2	0.151	0.151	0.15	0.111	0.728	0.165	0.545	0.55	0.353	0.721	0.281	0.54	0.515	0.303	0.225	0.189	0.254	0.272	0.251
NCI-H2085	0.517	0.427	0.398	0.361	0.318	0.756	0.7	0.669	0.663	0.362	0.816	0.786	0.748	0.63	0.383	0.555	0.55	0.65	0.534	0.538
NCI-H2087	0.83	0.669	0.478	0.498	0.393	1.08	0.814	0.688	0.649	0.442	0.365	0.53	0.602	0.379	0.188	0.234	0.272	0.2	0.228	0.171
NCI-H2126	0.502	0.475	0.444	0.402	0.328	0.819	0.581	0.728	0.618	0.452	0.718	0.381	0.535	0.545	0.325	0.637	0.568	0.492	0.539	0.463
NCI-H2170	0.346	0.252	0.253	0.239	0.206	0.29	0.23	0.245	0.233	0.25	0.841	0.515	0.694	0.675	0.447	0.503	0.478	0.446	0.477	0.45
NCI-H2347	0.538	0.772	0.584	0.47	0.492	0.957	0.823	0.71	0.682	0.751	0.558	0.603	0.424	0.487	0.4	0.597	0.656	0.599	0.585	0.504
NCI-H2405	0.46	–	0.294	0.415	0.313	1.04	–	0.819	0.901	0.761	1.01	1	0.82	0.837	0.631	0.781	0.808	0.691	0.64	0.605
NCI-H3122	0.536	0.523	0.449	0.332	0.234	0.994	0.998	0.911	0.819	0.579	0.931	0.632	0.879	0.703	0.613	0.394	0.423	0.347	0.33	0.277
PC-3 [JPC-3]	0.778	0.647	0.56	0.677	0.494	0.436	0.378	0.433	0.415	0.344	0.817	0.673	0.699	0.507	0.381	0.804	0.713	0.76	0.782	0.607
PC-14	0.764	0.653	0.579	0.537	0.254	0.348	0.343	0.257	0.202	0.195	0.804	0.629	0.576	0.673	0.416	0.329	0.217	0.224	0.27	0.205
